Laboratory results taken from patent US20120035079A1, “GENOTOXICITY TESTING” (priority 2009, published 2012).
Read-outs that look alike come from different tables or passages of the source.

What was measured:
[1] = tested on: human GADD45α gene promoter and regulatory element linked to Gaussia luciferase (GD532-GLuc) in TK6 cells; experiment: GLuc genotoxicity assay: GLuc-T01 cells (TK6 with pEP-GD532-GLuc), 48 hour endpoint, without S9
Description: The assay has the following steps, as further described below: (1) preparing a microplate for use in an assay; (2) conducting the assay in the microplates; (3) collecting and analysing the data; and (4) making a judgment on genome damage and the consequences.
The assay is performed using a microplate reader capable of luminescence and absorbance readings, equipped with injectors capable of single well additions.
Using the standard dilution protocol described here, all concentrations are halved in the microplate well when a sample volume of 75 μl is combined with 75 μl of cell culture. All standard and test chemicals and reagents should be prepared fresh shortly before the assay is performed.
An initial concentration of 2 mM or 1 mg/ml (whichever is lowest) is recommended (equating to 1 mM or 500 μg/ml of test compound on the microplate). It is desirable that the test compound is fully soluble at the top concentration tested. A minimum of 250 μl of each test compound is required per plate. […] If the compound precipitates from solution when the DMSO standard is added to water, the original DMSO stock standard can be diluted further with 100% DMSO. The 20 μl+980 μl water dilution step is then repeated to produce a fresh test standard.
Standard cell culture methods are used to prepare GLuc-TO1 cells for use in the assay. […] Cells are grown in routine culture medium:
The following standard protocol may be followed. […] To achieve this, 150 microlitres of the test chemical solution are put into a microplate well. […] This produces 9 serial dilutions of 75 microlitres each.
75 μl of GLuc-T01 cells in Assay Medium (GS-HC-AM) as described above are then added to each well as appropriate.
The following controls are included in the microplate: • a. Blank well. • b. Test compound/sample alone. • c. Assay medium alone. • d. Control compound with cells.
Once finished, the microplates are covered with a breathable membrane. […] Plates should be incubated and analysed after 48 hours +/−2 hours.
Plates are first read for absorbance in each well, at a wavelength of ˜620 nm. […] An example of a suitable reader and injector system is a Tecan Infinite F500
Following the 48 hour incubation, luminescence and absorbance data are collected from the microplates. A microplate reader combining luminescence and absorbance functionality is used; by way of example, this reader may be a Tecan Infinite F500 (Tecan UK Ltd.). Luminescence data are collected with an integration time of 3 seconds after injection of the substrate and shaking of the microplate (within the reader). Optical absorbance is measured through a 600 nm or 620 nm filter. These luminescence and absorbance data are transported into a Microsoft Excel spreadsheet, and converted to graphical data. […] Luminescence data are divided by absorbance data to give ‘brightness units’, the measure of average GLuc induction per cell. […] In this way, one can distinguish between a small number of highly luminescent cells and a large number of weakly luminescent cells. The decision (see below), on whether or not a compound is classified as being genotoxic is generated automatically within the software.
The cytotoxicity threshold is set at 80% of the cell density reached by the untreated control cells.
Anomalous brightness data is generated when the toxicity leads to a final cell density less than 30% that of the blank. Genotoxicity data is not calculated above this toxicity threshold.
A series of genotoxicity assays were performed using a TK6 cell line having the GD532-GLuc expression cassette (a “GLuc assay”). The assays were performed using the experimental protocol provided in a later example.

[2] = tested on: GADD45α-GFP expression cassette in TK6 cells; experiment: GADD45α-GFP reporter assay (GreenScreen HC); format: cell-based, human; settings: FIG. 3, 24 hour timeframe
Description: Studying FIG. 3 allows for the construction of a number of hypotheses regarding the stability of the reporter proteins and how this will affect the GreenScreen HC assay. The FLuc protein has been reported to have a half-life within cells of ˜3 hours. In comparison, GFP has been reported to have a half-life within cells of ˜26 hours. In this respect GFP can be considered to give more of a cumulative measure of GADD45α induction whilst FLuc will report only on recent GADD45 induction.

[3] = tested on: GADD45α-FLuc expression cassette (GD532-L) in TK6 cells; experiment: FLuc genotoxicity assay: TK6 cells with GADD45α-FLuc (GD532-L) expression cassette; settings: for detection as genotoxic with FLuc at the 48 hour endpoint: FLuc measured 8-48 hours after treatment, FIG. 4
Source text: The reagents for the FLuc assay were originally taken from the article Wettey F R, Jackson A P. Luciferase Reporter Assay. In: Reviews and Protocols in DT40 Research. […] The reagents and their concentrations are listed below. The pH of both mixes is adjusted to pH 7.8 in order to maximise the light output from luciferase.
It was decided to directly lyse the TK6 cells in the GreenScreen HC assay medium as to pellet and wash the cells would add additional steps to the protocol and therefore increase variability into the data. […] The solution of this combined lysis and assay mix (L&A buffer) is shown below.
The final concentration listed above is the concentration of the reagents after the L&A buffer has been combined with the GreenScreen HC assay media. The final concentration of the reagents is fixed and based on the information from the Wettey and Jackson protocol. The FLuc assay as it is currently performed relies on the addition of 40 μl of L&A buffer to 120 μl of GreenScreen HC assay buffer. Therefore, the initial concentration of the reagents in the L&A buffer has to be four times greater than the desired final concentration. The L&A buffer should be pH 8.0 as when the L&A buffer is combined with the GreenScreen HC assay medium (pH 7.2) this give a final pH of ˜7.8.
The preparation of pEP-GD532-GLuc is described in the accompanying examples. Using a similar strategy the inventors also prepared plasmid pEP-GD532-L, in which FLuc is used as the reporter protein. TK6 cells are transfected with a plasmid having a GD532-L or GD532-GLuc expression cassette by electroporation and clones bearing the reporter plasmids are selected.
The inventors wished to determine which of the GLuc and FLuc reporter proteins were most suitable for use in a genotoxicity assay. To determine this, they performed a series of experiments in which cells having the GD532-L or GD532-GLuc expression cassette were exposed to a test compound, and the activity of GLuc and FLuc measured and compared to the standard GADD45α-GFP expression cassette.
FLuc cells were combined with a several known genotoxins and non-genotoxins. FLuc expression was measured at 8, 16, 24, 32, 40 and 48 hours after treatment.

[4] = tested on: GD532-GLuc reporter in GLuc-T01 cells with S9 liver extract; experiment: S9 metabolic activation GLuc assay with thiazole orange cell number estimation; settings: TO cell number estimation, threshold 1.5, FIG. 7B
Description: In an S9-incorporating assay, GLuc-T01 cells are exposed to the test compound in the presence of the S9 extract in a mixture with enzyme co-factors (for example, glucose-6-phosphate (2.5 mM) and β-nicotinamide adenine dinucleotide phosphate (0.5 mM)). The S9 extract is normally used at a final concentration of 1% (v/v) in the assay microplate. […] The conditions of an S9-incorporating assay (for example, time of exposure and type of S9—animal species, chemical induction of hepatic enzymes etc.) may be varied according to experimental requirements.
The cell stain used in the adapted protocol is thiazole orange (TO) which is a cyanine dye that binds to nucleic acids. The binding of TO to DNA and RNA greatly enhances its fluorescence intensity, allowing for its detection without the need to wash away background, unbound TO.
The method requires GLuc-T01 cells to be lysed to allow access to the DNA of all cells present in the microplate well.
In the microplate, the final concentration of TO is 15 μM and for Triton-X100 it is 1% (v/v).
Where the assay includes S9 liver extracts, the genotoxic threshold is set at a relative GLuc induction of 1.5 (i.e. an 50% increase).

[5] = TK6 with GD532-GLuc, 48 hour endpoint
[6] = lowest test compound concentration that produces a relative GLuc induction greater than the 1.8 threshold

SMILES	GLuc Genotox Result [1]	GLuc Genotox LEC ([1]; human, 48 h)	other results
OCCO [ethylene glycol]			genotoxicity outcome in the GLuc assay (in words) [1, 5]: correctly identified
COc1cc([C@@H]2c3cc4c(cc3[C@@H](O[C@@H]3O[C@@H]5CO[C@@H](C)O[C@H]5[C@H](O)[C@H]3O)[C@H]3COC(=O)[C@H]23)OCO4)cc(OC)c1O [Etoposide]	+++		genotoxicity outcome in the GLuc assay (in words) [1]: positive
CCc1nc(N)nc(N)c1-c1ccc(Cl)cc1 [Pyrimethamine]	+++	0.39 µg/mL	
CN(N=O)C(N)=O [N-Nitroso-N-methylurea]			GLuc Genotox LEC [1, 6]: 8.05 µg/mL; concentration at which GADD45α induction (GFP signal) peaks [2]: at least 258 μg/ml; test concentration at which the highest relative induction is seen ([3]; FLuc reporter, FIG. 3, 24 hour timeframe): 32 µg/mL; concentrations that cause significant cell death ([3]; TK6 reporter cells, FIG. 3, explains decrease in FLuc signal): greater than 32 μg/ml
Nc1cc2c3ccccc3ccc2c2ccccc12 [6-Aminochrysene]			detection of pro-genotoxin in S9 GLuc assay [4]: detected
Nc1ncn([C@@H]2O[C@H](CO)[C@@H](O)[C@H]2O)c(=O)n1 [5-Azacytidine]	+++	0.38 µg/mL	
CC[C@]1(O)C[C@H]2CN(CCc3c([nH]c4ccccc34)[C@@](C(=O)OC)(c3cc4c(cc3OC)N(C=O)[C@H]3[C@@](O)(C(=O)OC)[C@H](OC(C)=O)[C@]5(CC)C=CCN6CC[C@]43[C@@H]65)C2)C1 [Vincristine Sulphate]	+++	0.0008 µg/mL	
CC(=O)O[C@H]1C(=O)[C@@]2(C)[C@H]([C@H](OC(=O)c3ccccc3)[C@]3(O)C[C@H](OC(=O)[C@H](O)[C@@H](NC(=O)c4ccccc4)c4ccccc4)C(C)=C1C3(C)C)[C@]1(OC(C)=O)CO[C@@H]1C[C@@H]2O [Paclitaxel (Taxol), Paclitaxel]	+++	0.03 µg/mL	
CC[C@@]1(O)C(=O)OCc2c1cc1n(c2=O)Cc2cc3ccccc3nc2-1 [Camptothecin]			GLuc Genotox LEC [1, 6]: 0.08 µg/mL
O=c1[nH]cc(F)c(=O)[nH]1 [5-Fluorouracul]			genotoxicity outcome in the GLuc assay (in words) [1, 5]: correctly identified; GLuc Genotox LEC [1, 6]: 0.63 µg/mL; detection as genotoxic with FLuc at the 48 hour endpoint [3]: would not have been detected as genotoxic
COc1cc2c(c(OC)c1OC)-c1ccc(OC)c(=O)cc1[C@@H](NC(C)=O)CC2 [Colchicine]			genotoxicity outcome in the GLuc assay (in words) [1, 5]: correctly identified; detection as genotoxic with FLuc at the 48 hour endpoint [3]: would not have been detected as genotoxic
OO [Hydrogen Peroxide]	+++	5.00 µg/mL	
COS(C)(=O)=O [Methyl methanesulfonate]	+++	6.25 µg/mL	
NC(=O)NO [Hydroxyurea]		4.75 µg/mL	
CCCCNC(=O)n1c(NC(=O)OC)nc2ccccc21 [Benomyl]	+++	1.81 µg/mL	
C[C@@]1(CO)[C@H](O)CC[C@@]2(C)[C@H]1CC[C@H]1C[C@@H]3C[C@@]12CC[C@]3(O)CO [Aphidicolin]			GLuc Genotox LEC [1, 6]: 0.13 µg/mL
COC1=CC(=O)C[C@@H](C)[C@]12Oc1c(Cl)c(OC)cc(OC)c1C2=O [Griseofulvin]	+++		
